Laboratory results published in the supplement of paper PMC10307832.

Columns and labels:
Assay in all cases: relative viability (nuclei count vs DMSO), 5 days (fraction); higher = more cells survive
AZD8055 + Luminespib = compound: COc1ccc(-c2ccc3c(N4CCOC[C@@H]4C)nc(N4CCOC[C@@H]4C)nc3n2)cc1CO [AZD8055] + CCNC(=O)c1noc(-c2cc(C(C)C)c(O)cc2O)c1-c1ccc(CN2CCOCC2)cc1 [Luminespib] (partner 0.01 µM)
Summary of the method: (§1)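 Relative viability divides the nuclei count in treated wells by that in vehicle wells. Lung cancer cell lines were seeded in 1536-well plates, dosed by pin tool the next day, and fixed and stained after 5 days in one step with final 0.05% Triton X-100, 1% formaldehyde and 1 ug/ml Hoechst. Dosing was a single drug or a fixed anchor-drug dose plus five library-drug doses (not always all listed) in √10 steps, and values are medians of duplicate plates imaged at 4×.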

AZD8055 + OSI-027 = compound: COc1ccc(-c2ccc3c(N4CCOC[C@@H]4C)nc(N4CCOC[C@@H]4C)nc3n2)cc1CO [AZD8055] + COc1cccc2cc(-c3nc([C@H]4CC[C@H](C(=O)O)CC4)n4ncnc(N)c34)[nH]c12 [OSI-027] (partner 0.5 µM)
Summary of the method: as §1

AZD8055 + Lapatinib = compound: COc1ccc(-c2ccc3c(N4CCOC[C@@H]4C)nc(N4CCOC[C@@H]4C)nc3n2)cc1CO [AZD8055] + CS(=O)(=O)CCNCc1ccc(-c2ccc3ncnc(Nc4ccc(OCc5cccc(F)c5)c(Cl)c4)c3c2)o1 [Lapatinib] (partner 2 µM)
Summary of the method: as §1

AZD8055 + Linsitinib = compound: COc1ccc(-c2ccc3c(N4CCOC[C@@H]4C)nc(N4CCOC[C@@H]4C)nc3n2)cc1CO [AZD8055] + C[C@]1(O)C[C@@H](c2nc(-c3ccc4ccc(-c5ccccc5)nc4c3)c3c(N)nccn32)C1 [Linsitinib] (partner 1 µM)
Summary of the method: as §1

Cell Line | relative viability (AZD8055 + Luminespib; first compound 0.01 µM) | relative viability (AZD8055 + Luminespib; first compound 0.03162 µM) | relative viability (AZD8055 + Luminespib; first compound 0.1 µM) | relative viability (AZD8055 + Luminespib; first compound 0.3162 µM) | relative viability (AZD8055 + Luminespib; first compound 1 µM) | relative viability (AZD8055 + OSI-027; first compound 0.01 µM) | relative viability (AZD8055 + OSI-027; first compound 0.03162 µM) | relative viability (AZD8055 + OSI-027; first compound 0.1 µM) | relative viability (AZD8055 + OSI-027; first compound 0.3162 µM) | relative viability (AZD8055 + OSI-027; first compound 1 µM) | relative viability (AZD8055 + Lapatinib; first compound 0.01 µM) | relative viability (AZD8055 + Lapatinib; first compound 0.03162 µM) | relative viability (AZD8055 + Lapatinib; first compound 0.1 µM) | relative viability (AZD8055 + Lapatinib; first compound 0.3162 µM) | relative viability (AZD8055 + Lapatinib; first compound 1 µM) | relative viability (AZD8055 + Linsitinib; first compound 0.01 µM) | relative viability (AZD8055 + Linsitinib; first compound 0.03162 µM) | relative viability (AZD8055 + Linsitinib; first compound 0.1 µM) | relative viability (AZD8055 + Linsitinib; first compound 0.3162 µM) | relative viability (AZD8055 + Linsitinib; first compound 1 µM)
H3255 | 0.879 | 0.804 | 0.845 | 0.382 | 0.381 | 0.706 | 0.572 | 0.587 | 0.454 | 0.423 | 0.228 | 0.209 | 0.227 | 0.212 | 0.229 | 0.925 | 0.858 | 0.63 | 0.468 | 0.277
EPLC-272H | 0.182 | 0.12 | 0.178 | 0.22 | 0.182 | 0.252 | 0.255 | 0.28 | 0.228 | 0.243 | 0.735 | 0.75 | 0.549 | 0.471 | 0.459 | 1.1 | 0.926 | 0.669 | 0.404 | 0.373
PC-3 [JPC-3] | 0.717 | 0.565 | 0.693 | 0.469 | 0.332 | 0.84 | 0.742 | 0.756 | 0.768 | 0.566 | 0.392 | 0.393 | 0.333 | 0.322 | 0.302 | 0.992 | 0.972 | 0.882 | 0.673 | 0.461
NCI-H1793 | 0.151 | 0.156 | 0.146 | 0.132 | 0.149 | 0.291 | 0.215 | 0.196 | 0.18 | 0.202 | 0.422 | 0.346 | 0.305 | 0.308 | 0.276 | 0.539 | 0.315 | 0.224 | 0.197 | 0.18
EKVX | 0.949 | 0.866 | 0.655 | 0.355 | 0.248 | 0.753 | 0.745 | 0.665 | 0.51 | 0.411 | 0.193 | 0.181 | 0.155 | 0.132 | 0.132 | 1.05 | 0.947 | 0.604 | 0.384 | 0.24
ChaGo-K-1 | 0.611 | 0.604 | 0.533 | 0.423 | 0.297 | 0.584 | 0.576 | 0.624 | 0.56 | 0.541 |  |  |  |  |  |  |  |  |  | 
NCI-H23 | 0.193 | 0.216 | 0.208 | 0.229 | 0.297 | 0.673 | 0.555 | 0.626 | 0.426 | 0.323 | 1.15 | 0.804 | 0.792 | 0.369 | 0.35 | 0.521 | 0.484 | 0.294 | 0.244 | 0.259
EMC-BAC-2 | 1.18 | 1.05 | 0.867 | 0.534 | 0.403 | 0.364 | 0.387 | 0.358 | 0.291 | 0.284 | 0.867 | 0.777 | 0.74 | 0.403 | 0.406 | 0.784 | 0.65 | 0.53 | 0.337 | 0.3
LOU-NH91 | 0.349 | 0.348 | 0.325 | 0.282 | 0.317 | 0.775 | 0.797 | 0.66 | 0.569 | 0.556 | 0.68 | 0.679 | 0.56 | 0.484 | 0.548 | 0.889 | 0.835 | 0.629 | 0.585 | 0.524
LU99A | 0.234 | 0.189 | 0.185 | 0.191 | 0.188 | 0.297 | 0.311 | 0.322 | 0.264 | 0.254 | 0.824 | 0.458 | 0.329 | 0.218 | 0.228 | 0.316 | 0.306 | 0.196 | 0.203 | 0.184
NCI-H1395 | 0.669 | 0.379 | 0.684 | 0.445 | 0.36 | 0.657 | 0.618 | 0.535 | 0.443 | 0.422 | 0.939 | 0.776 | 0.771 | 0.616 | 0.462 | 1.1 | 0.828 | 0.708 | 0.553 | 0.522
NCI-H460 | 0.03 | 0.029 | 0.0182 | 0.0223 | 0.0329 | 0.85 | 0.47 | 0.506 | 0.141 | 0.124 | 1.72 | 0.629 | 0.43 | 0.137 | 0.0984 | 0.555 | 0.213 | 0.206 | 0.0409 | 0.0438
201T | 0.979 | 1.01 | 0.814 | 0.421 | 0.42 | 0.786 | 0.746 | 0.676 | 0.484 | 0.383 | 1.01 | 1.04 | 0.986 | 0.788 | 0.7 | 0.997 | 0.906 | 0.758 | 0.609 | 0.554
NCI-H1944 | 0.866 | 0.573 | 0.483 | 0.277 | 0.222 | 0.418 | 0.454 | 0.378 | 0.297 | 0.24 | 0.766 | 0.655 | 0.615 | 0.367 | 0.336 | 1.13 | 0.843 | 0.693 | 0.477 | 0.335
NCI-H2405 | 0.757 | 0.564 | 0.536 | 0.289 | 0.279 | 0.664 | 0.697 | 0.56 | 0.43 | 0.385 | 1.03 | 0.955 | 0.858 | 0.395 | 0.292 | 0.802 | 0.621 | 0.477 | 0.333 | 0.331
NCI-H1703 |  |  |  |  |  |  |  |  |  |  | 0.798 | 0.726 | 0.879 | 0.427 | 0.313 | 0.514 | 0.576 | 0.623 | 0.102 | 0.29
NCI-H1755 | 0.43 | 0.417 | 0.361 | 0.263 | 0.251 | 0.752 | 0.698 | 0.649 | 0.544 | 0.537 | 1.07 | 0.815 | 0.935 | 0.565 | 0.457 | 0.95 | 0.867 | 0.764 | 0.474 | 0.403
